Test results taken from patent publication US20120220554A1, “Combretastatins for Prevention of Posterior Capsule Opacification” (OXIGENE, INC., priority 2010, published 2012).

Tested on: polymerized tubulin in BMI-immortalized bovine lens epithelial (BIE) cells
Assay: Dimer/polymer tubulin extraction and anti-tubulin western blot in BIE cells
Type: cell-based
Settings: single 30 min treatment with 1 μM CA4P, at 30 min after start and up to 24 h after end of exposure (FIG. 4)
Procedure: BMI-immortalized bovine lens epithelial (BIE) cells, on plastic, and primary bovine lens epithelial cells, on their original in vivo basement membrane, (the eye lens capsule), were cultured in 10% fetal calf serum (FCS)-supplemented medium at 37° C. prior to 30 min exposure to 1 μM CA4P, after which they were returned to 10% FCS-supplemented medium. The relatively short exposure was chosen to approximate the duration of a cataract surgery procedure. At a range of time points following exposure, cells were subjected to cell viability assay (MTT-based assay, PROMEGA, UK), immunoblotting or immunofluorescence.
BMI-immortalized bovine lens epithelial cells (BIE cell line, produced in Roy Quinlan's Laboratory, University of Durham, UK), were grown at 37° C., 5% CO2, in 10 cm diameter Petri dishes in 10% fetal calf serum (FCS)-supplemented tissue culture medium (Sigma-Aldrich, UK). When nearing confluence, they were exposed to 1 μM combretastatin A 4-phosphate (CA4P) (OXiGENE, UK) diluted in 10% FCS-supplemented medium for 30 min, after which the cells were returned to 10% FCS-supplemented medium. Immediately after the end of CA4P exposure, cells were extracted to assess the proportion of dimer/polymer tubulin, as described in Lieuvin et al., 1994 (J. Cell Biology 124 (6):985-996). […]
The proportion of dimer/polymer tubulin was assessed by western blotting. […]

Structure (SMILES): COc1ccc(/C=C\c2cc(OC)c(OC)c(OC)c2)cc1OP(=O)(O)O [CA4P, combretastatin A-4 phosphate]
- polymerized tubulin (western blot): loss of polymerized tubulin
